In patent US8673591B2, “Genetic incorporation of 3-aminotyrosine into reductases” (The Scripps Research Institute, priority 2007, dated 2014):
Read-outs that look alike come from different tables or passages of the source.

Assays:
[1] = tested on: DH10B E. coli cells; experiment: Toxicity of NH2Y: growth of E. coli in GMML medium and on agar plates; format: cell-based
Source text: (§1) Toxicity and uptake of NH2Y. Evolution of an NH2Y-specific aminoacyl-tRNA synthetase (RS) requires that NH2Y is taken up by E. coli, that it is not toxic, and that it is not incorporated into proteins by any endogenous RSs. All three requirements were met by NH2Y. […] The presence of DTT however, caused cells to grow at a rate 25-35% more slowly than those in the presence of only NH2Y or absence of NH2Y/DTT.

[2] = biological target: T1, E. coli ribonucleotide reductase (RNR) (Escherichia coli, UniProt P00452); conditions: inactivation of wt α2β2 by N3ADP/dGTP; 20 s time scale; cited from earlier work
T1 construct: made in house; host or cells: E. coli DH10B (NH2Y-α2s)

[3] = tested on: DH10B E. coli cells; experiment: Qualitative assay for cellular uptake of NH2Y by LC-MS; format: cell-based; conditions: 1 mM NH2Y with or without 0.1 mM DTT
Procedure: Qualitative assay for cellular uptake of NH2Y by LC-MS. The uptake assay was performed as previously described with minor modifications.^48 DH10B E. coli cells were grown to saturation at 37° C. in GMML in the presence of 1 mM NH2Y and 0.1 mM DTT and subsequently harvested and lysed as outlined previously. Chromatography of the crude extract was performed on a Zorbax SB-C18 (5 μm, 4.6×150 mm) column with a linear gradient from 5% to 25% MeCN in 0.1% TFA solution over 8 min at 0.5 mL/min. Under these conditions, NH2Y elutes at ˜13% MeCN. For HPLC-ESI-MS analysis, NH2Y standard solutions were prepared in water.
as §1

[4] = cited from earlier work

O[C@H](CS)[C@H](O)CS (racemic) [DTT, DL-dithiothreitol]
slower growth rate ([1]; Escherichia coli, 0.1 mM): 25-35%

[N-]=[N+]=N[C@@H]1[C@H](O)[C@@H](COP(=O)(O)OP(=O)(O)O)O[C@H]1n1cnc2c(N)ncnc21 [N3ADP, 2′-Azido-2′-deoxyadenosine-5′-diphosphate]
initial Y122• lost (equivalent amount of N• formed) [2]: 50-60%

Nc1cc(C[C@H](N)C(=O)O)ccc1O [NH2Y, 3-aminotyrosine]
growth rates in the presence of substance ([1]; NH2Y 1 mM, GMML medium): not significantly affected
cellular uptake (HPLC and ESI-MS of cell extracts) [3]: observed in all cell extracts
reduction potential ([4]; pH 7.0): 0.64 V
reduction potential lower than that of Y ([4]; pH 7.0): 0.19 V
reduction potential lower than that of Y ([4]; pH 7): 190 mV
